Experimental data reported in patent US20070082914A1, “4-(4-Methylpiperazin-1-ylmethyl)-n-[4-methyl-3-(4-pyridin-3-yl)pyrimidin-2-ylamino)phenyl]-benzamide for treating pulmonary fibrosis” (priority 2002, published 2007).
Where a name gives a salt, the structure may show the parent alone.

Test system: Asbestos-Exposed Mice
Test: Asbestos-exposed mice: morphometric analysis of first alveolar duct bifurcations
Format: in vivo
Conditions: asbestos-exposed C57BL/6 mice, 30 days following exposure
Experimental: Asbestos Exposure: Eight week old C57BL/6 mice are exposed to 15 mg/m^3 of chrysotile asbestos in inhalation chambers for a period of 5 hours, for 3 consecutive days, as described previously in detail in our earlier publications (Lasky et al. Am. J. Respir. Crit. Care Med. (1998) 157:1652-7). This asbestos exposure induces fibroblast proliferation and a morphometrically characterized lesion at the alveolar duct bifurcations (Brody et al., Am Rev Respir Dis. (1981) 123:670-9). Sham-exposed (ambient air) animals are used as controls. The groups include: sham-exposed with vehicle; asbestos-exposed with vehicle; and asbestos exposed with COMPOUND I (imatinib mesylate). Five mice from each of these […] are sacrificed 30 days following exposure and used for determining the dimensions of the alveolar duct bifurcations. […]
Morphometric Analysis: H & E stained sections from exposed and control animals from the 30 day time point are masked. Bifurcation area is measured using an Olympus microscope with a video camera interfacing with a PC utilizing V150 imaging software (Fermin et al., J Anat. (1995) 186:469-81). The total area and perimeter of each of five first alveolar duct bifurcations is measured as previously described (Perdue et al., J. Histochem. Cytochem. (1994) 42:1061-70). […]

SMILES: Cc1ccc(NC(=O)c2ccc(CN3CCN(C)CC3)cc2)cc1Nc1nccc(-c2cccnc2)n1 [SALT I, 4[-(4-methyl-1-piperazin-1-ylmethyl)-N-[4-methyl-3-[[4-(3-pyridinyl)-2-pyrimidinyl]amino]phenyl]benzamide methanesulfonate]
- First alveolar duct area (100 mg COMPOUND I free base/kg i.p. once per day, from the day preceding exposure and for 14 days thereafter, group mean): 1875 square micrometers
- reduction of the size of the lesion (fibrotic scar at first alveolar duct bifurcations) (100 mg free base/kg i.p. once per day, P=0.02): 43%
